Measured values published in patent EP0101641A2, “Sulfonylamino-aza-bicyclo-alkyl derivatives” (BEECHAM GROUP PLC, priority 1982, dated 1984).

Legend:
Assay type in all cases: in vivo
[1] = test system: intragastric pressure; experiment: Increase in intragastric pressure (peripheral dopamine blockade) in conscious restrained rats; parameters: key: A = active; IA = inactive; details: rat
Experimental: Increase in intragastric pressure - peripheral dopamine blockade
Intragastric pressure changes were recorded from previously starved conscious but restrained rats using a saline filled catheter inserted into the lumen of the stomach via a permanent gastric fistula. The catheter was connected to a physiological pressure transducer and pressure changes recorded on a hot wire pen recorder. In each animal a pre-dose period of 40 minutes was allowed to obtain a measure of spontaneous activity. An index of activity was obtained by measuring the average height of pressure waves during 10 minute periods. Values for 4 such periods were obtained during assessment of spontaneous activity and for 40 minute period after administration of compound. Student's "T" test was applied to the difference in average values obtained for spontaneous and post compound activity.

[2] = test system: vomiting response; experiment: Anti-emetic activity in the dog (apomorphine-induced vomiting); parameters: key to Anti-emetic: A = active; IA = inactive; details: for Anti-emetic: at 0.1 mg/kg s.c., 30 minutes before apomorphine HC1 0.1 mg/kg s.c.; for ED50: Canis lupus familiaris, sc, s.c. 30 minutes before apomorphine HC1 0.1 mg/kg s.c.
Experimental: Anti-emetic activity in the dog
Compounds were administered subcutaneously 30 minutes prior to administration of a standard dose of apomorphine HC1 (0.1 mg/kg subcutaneously) and the vomiting response compared to that obtained when the same animals were dosed with apomorphine HC1 and vehicle only.

[3] = test system: Dopamine Receptor; experiment: Inhibition of apomorphine induced climbing in the mouse (central dopamine receptor blocking activity); parameters: key to CNS (Climbing): A = active; IA = inactive; details: apomorphine 1mg/kg s.c.

| Compound | IG Pressure (Basal) ([1]; at 5.0 mg/kg s.c.) | Anti-emetic [2] | CNS (Climbing) ([3]; at 50 mg/kg s.c.) | IG Pressure (Basal) ([1]; at 1.0 mg/kg s.c.) | ED50 [2] | CNS (Climbing) ED50 [3] | CNS (Climbing) ([3]; at 10 mg/kg s.c.) |
| --- | --- | --- | --- | --- | --- | --- | --- |
| COc1cc(NS(C)(=O)=O)c(S(C)(=O)=O)cc1C(=O)N[C@@H]1C[C@H]2CC[C@@H](C1)N2Cc1ccccc1 [Compound 6, 4-Methanesulphonamido-2-methoxy-5-methylsulphonyl-N-[3β-{8-benzy1-8-azabicyclo(3.2.1)octyl)]benzamide] | IA at 5.0 | A at 0.1 | IA at 50 |  |  |  |  |
| COc1cc(NS(C)(=O)=O)c(Cl)cc1C(=O)N[C@@H]1C[C@H]2CC[C@@H](C1)N2Cc1ccccc1 [Compound 1, 4-MethanGsulphonamJdo-5-ch3oro-2-methoxy-N-[3P-(8-benzyl-8-azabicyclo{3.2.1)octyl)]benzainide] |  |  |  | A at 1.0 | 0.02 mg/kg | ED50 0.2 mg/kg s.c. |  |
| COc1cc(NS(C)(=O)=O)ccc1C(=O)N[C@@H]1C[C@H]2CC[C@@H](C1)N2Cc1ccccc1 [Compound 2, 4-methanesulphonamido-2-methoxy-N-[3β-(8-benzyl-8-azabicyclo(3.2.1)octyl)]benzamide] |  |  |  | IA at 1.0 | 0.1 mg/kg |  | A at 10 |
| 5-hlethanesu-lphonylamido-2-rnethoxy-3-methyl-N-[3a-[8-benzyl-8-azabicyclo(3.2.1)octyl}]benzamide [Compound 10] |  | A at 0.1 |  | A at 1.0 |  |  |  |
